Reference: publication PMC5750217 (Nature Communications, 2018)

Legend:
[1] = biological target: T1, A1-T459C (mutant ASCT1) (Homo sapiens, UniProt P43007, T459C); assay: Two electrode voltage clamp, substrate-activated anion current in oocytes expressing A1-T459C; format: cell-based; details: for EC50: A1-T459C in oocytes, NO3−-containing buffer, current at +60 mV
T1 construct: expressed in transfected cells; host or cells: Xenopus laevis oocytes (cRNA injection)
T1 sequence (P43007 1-532 T459C): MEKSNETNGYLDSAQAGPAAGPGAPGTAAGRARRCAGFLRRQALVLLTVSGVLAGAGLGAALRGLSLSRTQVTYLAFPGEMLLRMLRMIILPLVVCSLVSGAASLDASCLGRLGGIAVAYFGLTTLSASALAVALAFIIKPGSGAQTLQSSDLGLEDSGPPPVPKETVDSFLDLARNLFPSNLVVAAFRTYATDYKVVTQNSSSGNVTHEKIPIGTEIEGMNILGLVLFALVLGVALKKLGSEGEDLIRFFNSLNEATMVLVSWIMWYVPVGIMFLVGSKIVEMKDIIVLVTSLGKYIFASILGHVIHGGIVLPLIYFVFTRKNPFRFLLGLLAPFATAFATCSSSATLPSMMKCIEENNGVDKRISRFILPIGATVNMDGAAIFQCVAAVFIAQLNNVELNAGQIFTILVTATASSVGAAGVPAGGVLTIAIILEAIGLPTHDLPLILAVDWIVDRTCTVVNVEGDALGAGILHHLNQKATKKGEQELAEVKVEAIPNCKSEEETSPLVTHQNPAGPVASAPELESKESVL
Description: (§1) All chemicals were obtained from Sigma unless otherwise stated. Stage V oocytes were harvested from female Xenopus laevis (frogs) which were obtained from Nasco (Fort Alkinson, USA). Frogs were anaesthetised with 6.5 mM tricaine neutralised with 7.14 mM sodium bicarbonate. After making an incision in the abdomen of the frog, ovarian sacs were removed and stored in OR-2 buffer (82.5 mM NaCl, 2 mM KCl, 1 mM MgCl2, 5 mM hemisodium HEPES, pH 7.5). This surgical procedure follows a protocol (#2016/970) approved by the University of Sydney Animal Ethics Committee under the Australian Code of Practice for the Care and Use of Animals for Scientific Purposes. To isolate oocytes, the ovarian sacs were cut into small sections before being digested by agitation with 2 mg per ml Collagenase A for 1–2 h. Following digestion, defoliculated oocytes were initially rinsed with OR-2, followed by frog Ringer’s solution (96 mM NaCl, 2 mM KCl, 1 mM MgCl2, 1.8 mM CaCl2, 5 mM hemisodium HEPES, pH 7.5). A total of 20 ng of transporter cRNA was injected into oocytes which were stored in frog Ringer’s solution supplemented with 0.1% gentamycin, 50 μg per ml tetracycline, 2.5 mM pyruvate and 0.5 mM theophylline at 16–18 °C.
(§2) After 2–4 days of microinjection, current recordings were made using the two electrode voltage clamp technique with a Geneclamp 500 amplifier (Axon Instruments, Foster City, CA) interfaced with a MacLab 2e chart recorder (ADI Instruments, Sydney, Australia) using the chart software, and a Digidata 1322A (Axon Instruments) controlled by an IBM-compatible computer using the pClamp software (version 10, Molecular Devices, Union City, CA). The current–voltage relationships for substrate elicited conductances were obtained by subjecting cells to 200 ms voltage pulses between −100 mV and + 60 mV in 10 mV steps. Current–voltage relationships were calculated by subtracting steady state current measurements in the absence of substrate from corresponding current measurements in the presence of substrate. […]

[2] = biological target: T2, A2-S481T/C482T (mutant ASCT2) (Homo sapiens, UniProt Q15758, C467T/S466T); assay: Two electrode voltage clamp, substrate-activated anion current in oocytes expressing A2-S481T/C482T; format: cell-based
T2 construct: expressed in transfected cells; host or cells: Xenopus laevis oocytes (cRNA injection)
T2 sequence (Q15758 1-541 S466T/C467T): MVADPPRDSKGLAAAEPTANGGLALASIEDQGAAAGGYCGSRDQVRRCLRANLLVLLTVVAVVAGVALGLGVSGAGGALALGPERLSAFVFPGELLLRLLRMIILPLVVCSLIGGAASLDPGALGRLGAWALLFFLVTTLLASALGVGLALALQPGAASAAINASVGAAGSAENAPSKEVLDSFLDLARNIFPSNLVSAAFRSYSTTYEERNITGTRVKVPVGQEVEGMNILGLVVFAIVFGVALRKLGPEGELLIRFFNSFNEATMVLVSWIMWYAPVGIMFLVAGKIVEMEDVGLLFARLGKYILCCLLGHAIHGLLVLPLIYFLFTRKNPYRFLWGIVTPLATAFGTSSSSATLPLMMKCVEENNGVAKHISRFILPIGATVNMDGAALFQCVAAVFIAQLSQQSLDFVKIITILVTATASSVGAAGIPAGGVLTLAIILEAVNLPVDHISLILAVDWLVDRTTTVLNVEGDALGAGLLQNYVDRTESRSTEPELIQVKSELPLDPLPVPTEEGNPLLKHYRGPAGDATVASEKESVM
Description: as §1, §2

[3] = A2-S481T/C482T in oocytes, NO3−-containing buffer, current at +60 mV, dash = substrate did not generate currents

Row | SMILES | EC50 [1] [µM] | EC50 of substrate-activated current [2, 3] | GPNA % inhibition of L-serine activated current ([1]; A1-T459C, GPNA co-applied with EC50 of L-serine, maximal dose / 1 mM GPNA (Table 1 footnote)) [%] | GPNA % inhibition of L-serine activated current ([2]; A2-S481T/C482T, GPNA co-applied with EC50 of L-serine, 1 mM GPNA (Table 1 footnote)) [%] | EC50 [2, 3] [µM]
1 | NC(=O)CC[C@H](N)C(=O)O [L-glutamine] | 260 ± 80 | did not generate any currents |  |  | 
2 | N[C@@H](CCC(=O)Nc1ccc([N+](=O)[O-])cc1)C(=O)O [GPNA, glutamyl-p-nitroanilide] |  |  | 18 ± 1 | 20 ± 3 | 
3 | N[C@@H](CO)C(=O)O [L-serine] | 83 ± 6 |  |  |  | 61 ± 7
